The values that follow are results of earlier work, collected in article PMC12347832, “Multi-Component Synthesis of New Fluorinated-Pyrrolo[3,4-b]pyridin-5-ones Containing the 4-Amino-7-chloroquinoline Moiety and In Vitro–In Silico Studies Against Human SARS-CoV-2” (International Journal of Molecular Sciences, 2025).

Broadly, the IC50 is the midpoint of a concentration-inhibition curve.

This series relates to SARS-CoV-2. The note with it: cited from earlier work.

With `CCN(CC)CCCC(C)Nc1ccnc2cc(Cl)ccc12` (stereo not shown) [Chloroquine], the concentration for half-maximal inhibition (IC50) is 1130 nM.
